From patent publication US20150216779A1, “COMPOSITIONS FOR TARGETED ANTI-AGING THERAPY” (THE TEXAS A&M UNIVERSITY SYSTEM, priority 2012, published 2015) come the findings set out here.

Series [1] is described as follows: CoQ10 storage stability in delivery system at 30° C., HPLC. Type of series: physicochemical. The settings on record: 8 weeks at 30° C.; dispersed in matrix of heat-stabilized lactoferrin alone and in combination with branched-chain amino acids. As to the method: A delivery system containing the anti-aging agent CoQ10 is prepared as follows: A. Encapsulated-1 (CoQ10). Primary Emulsion. […] This mixture was coarsely homogenized for 3 min using a hand blender. Secondary Emulsion.
The primary and secondary emulsions were blended at 1:1 ratio. The final emulsion system contained 0.5% Menhaden oil/Smart Blend Omega oil, 0.1% heat-stabilized lactoferrin, 0.1% CoQ10 and 0.1% high-methoxyl pectin (w/w). The zinc ion concentration after dilution became 2.4 mg/100 ml. This delivery system for CoQ10 was homogenized (72° C., 22.5 MPa), followed by pasteurization (72° C., 120 s). B. Encapsulated-2 (CoQ10). Primary Emulsion. […] This mixture was coarsely homogenized for 3 min using a hand blender. Secondary Emulsion. […] The primary and secondary emulsions were blended at 1:1 ratio. The final emulsion system contained 0.5% Menhaden oil/Smart Blend Omega oil, 0.1% heat-stabilized lactoferrin, 0.2% branched-chain amino acids, 0.1% CoQ10, and 0.1% high-methoxyl pectin (w/w). The zinc ion concentration after dilution became 2.4 mg/100 ml. This delivery system for CoQ10 was homogenized (72° C., 22.5 MPa), followed by pasteurization (72° C., 120 s). C. Unencapsulated (CoQ10). […] This mixture was homogenized (72° C., 22.5 MPa), followed by pasteurization (72° C., 120 s). […]

Series [2] in a line: Lutein photo-stability in delivery system at 21° C. under light 12 h daily, HPLC-PDA-MS/MS. Type of series: physicochemical. As to conditions: UV and visible light 12 h daily at 21° C. over 8 weeks; dispersed in heat-stabilized lactoferrin matrix. As to the method: A. Encapsulated-1 (Lutein). Primary Emulsion. […] This mixture was coarsely homogenized for 3 min using a hand blender. Secondary Emulsion.
The primary and secondary emulsions were blended at 1:1 ratio. The final emulsion system contained 0.5% Menhaden oil/Smart Blend Omega oil, 0.1% heat-stabilized lactoferrin, 0.1% lutein, and 0.1% high-methoxyl pectin (w/w). The zinc ion concentration after dilution became 2.4 mg/100 ml. This delivery system for lutein was homogenized (72° C., 22.5 MPa), followed by pasteurization (72° C., 120 s).
B. Encapsulated-2 (Lutein). Primary Emulsion. […] This mixture was coarsely homogenized for 3 min using a hand blender. Secondary Emulsion.
The primary and secondary emulsions were blended at 1:1 ratio. The final emulsion system contained 0.5% Menhaden oil/Smart Blend Omega oil, 0.1% heat-stabilized lactoferrin, 0.2% branched-chain amino acids, 0.1% lutein, and 0.1% high-methoxyl pectin (w/w). The zinc ion concentration after dilution became 2.4 mg/100 ml. This delivery system for lutein was homogenized (72° C., 22.5 MPa), followed by pasteurization (72° C., 120 s).
C. Unencapsulated (Lutein). […] This mixture was homogenized (72° C., 22.5 MPa), followed by pasteurization (72° C., 120 s).
The samples (500 ml each) were aseptically dispensed into clean, clear 600-ml bottles made from polyethylene terephthalate (PET). […]

The conditions of series [3]: O/W emulsion, menhaden oil/Smart Blend Omega oil 1:1 (0.5% w/w), entrapped within β-lactoglobulin microcarriers; 28 days of storage at 30° C.

Take `COC1=C(OC)C(=O)C(C/C=C(\C)CC/C=C(\C)CC/C=C(\C)CC/C=C(\C)CC/C=C(\C)CC/C=C(\C)CC/C=C(\C)CC/C=C(\C)CC/C=C(\C)CCC=C(C)C)=C(C)C1=O` [CoQ10, coenzyme Q10]: in series [1], the “degradation of CoQ10 during storage” value was “about 30%”.

As for `CC1=C[C@H](O)CC(C)(C)[C@H]1/C=C/C(C)=C/C=C/C(C)=C/C=C/C=C(C)/C=C/C=C(C)/C=C/C1=C(C)C[C@@H](O)CC1(C)C` [lutein], the “light-sensitive degradation of xanthophyll carotenoid pigments (lutein)” value in series [2] is given as “about 70%”.

On to docohexaenoic acid [DHA], for which, in series [3], the “percentage of retained ω-3 fatty acid” value is listed as 79.5%.
